Legend:
WJ-MSCs [1] = settings: glutathione at 100 μM (tested 0, 10, 50, 100 μM) after H2O2 0-100 μM; FIG. 2
Protocol: In order to determine the optimal concentration of glutathione in the cryopreservation formulation, the WJ-MSCs were treated with hydrogen peroxide (H2O2) at concentrations of 0 μM, 10 μM, 50 μM, and 100 μM, to induce stress caused by reactive oxygen species, and then further treated with glutathione at concentrations of 0 μM, 10 μM, 50 μM, and 100 μM, and cell recovery was evaluated using a CCK-8 assay.

WJ-MSCs [2] = settings: FIG. 1
Protocol: Specifically, the umbilical cord was cut into 3-4 cm lengths, the tissue was finely chopped and treated with collagenase solution (Gibco, USA) for 60 to 90 minutes to degrade the extracellular matrix, and 0.25% trypsin (Gibco, USA) was added to further induce digestion for 30 minutes at 37° C. Then, fetal bovine serum (FBS; Biowest, USA) was added and cells were obtained by centrifugation at 1,000 g for 10 minutes, and then were cultured in a 5% CO2 environment at 37° C. using MEM Alpha (Minimum Essential Medium, Invitrogen-Gibco, Rockville, MD) medium containing 10% FBS (fetal bovine serum, Invitrogen-Gibco) and 50 μg/mL gentamicin (Invitrogen-Gibco) to obtain human umbilical cord-derived mesenchymal stem cells (WJ-MSCs), which were then used in the experiment. […] The WJ-MSCs were seeded at 1×10^4 cells in a 96-well plate and cultured for 24 hours.

In the case of N[C@@H](CCC(=O)N[C@@H](CS)C(=O)NCC(=O)O)C(=O)O [glutathione], the “cell viability (cell recovery)” value (WJ-MSCs [1]) was “highest”, the cell viability (WJ-MSCs [2]; 1×10^4 cells in 96-well plate, cultured 24 hours, compared with acetadote, fursultiamine hydrochloride, vitamin C) was “highest” and the cell proliferation (WJ-MSCs [2]; CCK-8 assay) was “further increased”.
